From ChEMBL document CHEMBL1136316, “Low molecular mass peptide dendrimers that express antimicrobial properties” (2003)
In brackets after ≈: the same amount, converted by molar mass.

What was measured:
Escherichia coli = test: Antimicrobial activity against Escherichia coli NCTC 8196; format: functional
Staphylococcus aureus = test: Antimicrobial activity against Staphylococcus aureus NCTC 4163; format: functional

| SMILES | MIC (Escherichia coli) [µM] | MIC (Staphylococcus aureus) [µM] |
| --- | --- | --- |
| NCCCC[C@H](NC(=O)OCc1ccccc1)C(=O)N[C@@H](Cc1ccccc1)C(N)=O | 324 (≈ 138 µg/mL) | 151 (≈ 64.4 µg/mL) |
| NC(=O)[C@@H](Cc1ccccc1)NC(=O)[C@@H](CCCCNC(=O)[C@@H](CCCCNC(=O)[C@@H](N)CCCN=C(N)N)NC(=O)[C@@H](N)CCCN=C(N)N)NC(=O)[C@@H](CCCCNC(=O)C(N)CCCN=C(N)N)NC(=O)[C@H](N)CCCN=C(N)N (stereo partly specified) | 75 (≈ 88 µg/mL) | 130 (≈ 153 µg/mL) |
| COC(=O)[C@H](Cc1ccccc1)NC(=O)[C@@H](N)CCCCN | 590 (≈ 181 µg/mL) | 300 (≈ 92.2 µg/mL) |
| N=C(N)NCCCC(NC(=O)OCc1ccccc1)C(=O)NCCCCC(NC(=O)C(CCCN=C(N)N)NC(=O)OCc1ccccc1)C(=O)NCCCCC(NC(=O)C(CCCCNC(=O)C(CCCN=C(N)N)NC(=O)OCc1ccccc1)NC(=O)C(CCCN=C(N)N)NC(=O)OCc1ccccc1)C(=O)N[C@H](Cc1ccccc1)C(N)=O (stereo in doubt) | 20 (≈ 34.2 µg/mL) | 44 (≈ 75.2 µg/mL) |
| N=C(N)NCCCC(NC(=O)OCc1ccccc1)C(=O)NCCCC[C@@H](NC(=O)C(CCCN=C(N)N)NC(=O)OCc1ccccc1)C(=O)N[C@H](CCCCNC(=O)[C@@H](CCCCNC(=O)C(CCCN=C(N)N)NC(=O)OCc1ccccc1)NC(=O)C(CCCN=C(N)N)NC(=O)OCc1ccccc1)C(=O)N[C@H](Cc1ccccc1)C(N)=O (stereo in doubt) | 44 (≈ 75.2 µg/mL) | 88 (≈ 150 µg/mL) |
| N=C(N)NCCC[C@@H](NC(=O)OCc1ccccc1)C(=O)NCCCC[C@H](NC(=O)[C@@H](CCCN=C(N)N)NC(=O)OCc1ccccc1)C(=O)N[C@H](CCCCNC(=O)C(CCCCNC(=O)[C@H](CCCN=C(N)N)NC(=O)OCc1ccccc1)NC(=O)[C@H](CCCN=C(N)N)NC(=O)OCc1ccccc1)C(=O)N[C@H](Cc1ccccc1)C(N)=O (stereo partly specified) | 20 (≈ 34.2 µg/mL) | 44 (≈ 75.2 µg/mL) |
| C[C@H](N)C(=O)NCCCC[C@H](NC(=O)[C@H](C)N)C(=O)NCCCC[C@H](NC(=O)[C@H](CCCCNC(=O)[C@H](C)N)NC(=O)[C@H](C)N)C(=O)N[C@@H](Cc1ccccc1)C(N)=O (stereo in doubt) | 181 (≈ 151 µg/mL) | 181 (≈ 151 µg/mL) |
| NC(=O)[C@@H](Cc1ccccc1)NC(=O)[C@@H](CCCCNC(=O)[C@H](N)CCCCNC(=O)OCc1ccccc1Cl)NC(=O)[C@H](N)CCCCNC(=O)OCc1ccccc1Cl | 84 (≈ 74.4 µg/mL) | 16 (≈ 14.2 µg/mL) |

Other lines, results leading:

| MIC (Escherichia coli) [µM] | MIC (Staphylococcus aureus) [µM] | SMILES |
| --- | --- | --- |
| 375 (≈ 273 µg/mL) | 94 (≈ 68.3 µg/mL) | NCCCC[C@@H](NC(=O)OCc1ccccc1)C(=O)NCCCC[C@@H](NC(=O)[C@@H](CCCCN)NC(=O)OCc1ccccc1)C(=O)NCC(N)=O |
| 165 (≈ 137 µg/mL) | 1330 (≈ 1110 µg/mL) | NCCCC[C@@H](NC(=O)OCc1ccccc1)C(=O)NCCCC[C@@H](NC(=O)[C@@H](CCCCN)NC(=O)OCc1ccccc1)C(=O)N[C@H](Cc1ccc(O)cc1)C(N)=O |
| 64 (≈ 52.3 µg/mL) | 39 (≈ 31.9 µg/mL) | NCCCC[C@@H](NC(=O)OCc1ccccc1)C(=O)NCCCC[C@@H](NC(=O)[C@@H](CCCCN)NC(=O)OCc1ccccc1)C(=O)N[C@H](Cc1ccccc1)C(N)=O |
| 85 (≈ 68.3 µg/mL) | 85 (≈ 68.3 µg/mL) | NCCCC[C@@H](NC(=O)OCc1ccccc1)C(=O)NCCC[C@@H](NC(=O)[C@@H](CCCCN)NC(=O)OCc1ccccc1)C(=O)N[C@H](Cc1ccccc1)C(N)=O |
| 331 (≈ 276 µg/mL) | 331 (≈ 276 µg/mL) | NC(=O)[C@@H](Cc1ccc(O)cc1)NC(=O)[C@@H](CCCCNC(=O)[C@H](N)CCCCNC(=O)OCc1ccccc1)NC(=O)[C@H](N)CCCCNC(=O)OCc1ccccc1 |
